# In US5866576A, “Epoxide-containing compounds” (Cell Therapeutics, Inc., priority 1997, dated 1999):
# pIC50: −log10 of the molar value. Entries after “also recorded” stand apart in the source; their conditions may differ.
# Key:
# thymocytes [1] = test: IL-2 (ConA co-stimulated) induced proliferation of thymocytes; type: cell-based, mice; conditions: Mus musculus, Thymocyte, 96 h; Table II; ConA 0.25 ug/ml / IL2 20 ng/ml, 4 days
# Description: This example illustrates the effects of inventive compounds nos. 1105, 1114, 1413, 1439, 1594, 2518, 2548R, 2548S, 2562 and 3503 as effective inhibitors of IL-2 induced proliferation of thymocytes. Single cell suspensions of thymus gland cells obtained from 4-6 week old mice were prepared. Two-hundred thousand cells were plated into individual wells of flat-bottom 96-well plates in RPMI-1640-10% FCS medium. The invention compounds were then added to the wells at varying concentrations and the cells incubated for 1-2 hours at 37° C.
# Following this pre-incubation a mixture of Concanavalin A (ConA) and Interleukin-2 (IL2) was added to the experimental wells at a final concentration of (0.25 ug/ml ConA)/(20 ng/ml IL2). Appropriate positive and negative controls were set up on each plate. Each variable was set up in quadruplicate.
# The plates were incubated for 4 days at 37° C. in a humidified CO2 incubator. On day 4 the wells were pulsed with 1 μCi of tritiated thymidine(3H-TdR) and the plates incubated for an additional 4 hours. The plates were then harvested and the incorporation of 3H-TdR was determined in a liquid scintillation counter. From the CPM obtained from each experimental well an IC-50 for each inventive compound tested was determined. Therefore, a lower reported IC-50 value is indicative of greater inhibition of IL-2-induced proliferation of thymocytes. Table II illustrates IC-50 values (in μM) for inventive compounds inhibiting proliferation at very low concentrations of compound.
# [2] = test system: normal human bone marrow stromal cells (MSC); test: human bone marrow stromal cell (MSC) proliferation in response to PDGF BB and IL-1α; type: cell-based; conditions: Table III, PDGF BB 50 ng/ml and IL-1α 10 ng/ml
# Description: This example illustrates the effects of inventive compounds nos. 1114, 1413, 1560, 1565, 1594, 2518, 2548R, 2548S and 3503 as effective inhibitors of normal human bone marrow stromal cells (MSC) proliferation in response to Platelet Derived Growth Factor BB (PDGF B) and IL-1α (50 and 10 ng/ml, respectively).
# MSC were obtained and malintained in exponential growth, released from a growth plate with trypsin and plated into 96 well tissue culture plates in the presence of Fibroblast Growth Factor (FGFβ) for 48 hours. Growth media were removed and the cells were washed once with serum free media. The cells were then incubated 20-24 hours in serum free media.
# After incubation, inventive compounds were added to the cells at the appropriate concentration and then the cells again incubated for 1 hour. PDGF B and IL-1α were added to the cells along with 3H-thymidine and the cells again incubated for an additional 24 hours.
# After 24 hours of incubation, the cells were then harvested to assess incorporation of ^3 H-thymidine into DNA (proliferation). From each harvested cell culture, an IC-50 for each inventive compound tested was determined. Therefore, a lower reported IC-50 value is indicatilve of greater activity of the invention compounds in inhibiting MSC proliferation. Table III illustrates IC-50 values (in μM) for invention compounds inhibiting MSC proliferation at very low concentrations of compound.
# [3] = test system: hair follicles / skin of nu/nu (nude) mice; test: hair growth stimulation in nude mice, topical, skin biopsies; type: in vivo
# Description: This example illustrates the effects of inventive compound no. 1541 as hair growth stimulant in nude mice. In a procedure similar to that used in a commercial model for predicting human hair-growing ability of minoxidil, nu/nu (nude) mice were painted twice daily for 16 days on the right flank with compound no. 1541 using sterile applicators. Researches handled the mice under a laminar flow hood with applicator, wearing face mask and sterile gloves.
# After 16 days, one mouse was sacrificed by cervical dislocation and skin biopsies taken from the treated areas of the shoulder/flank and the non-treated area of the dorsal pelvis (rump). Specimens were placed in 10% buffered formalin solution.
# Six weeks following treatment, a second mouse was euthanatized and biopsied the same as previous mouse after 16 days.
# thymocytes [4] = test: murine thymocyte proliferation assay co-stimulated by ConA and IL-2 (FIGS. 7A-7E); type: cell-based, Balb/C mice; conditions: Mus musculus
# Description: This example illustrates dose response curves used to generate 50% inhibition concentrations (IC50) for inventive compounds nos. 1410, 1439, 1541, 1553, 1553S, 1560, 1565, 2548R, 2548S and 2562 in a murine thymocyte proliferation assay, co-stimulated by Concanavalin A (ConA) and interleukin-2 alpha (IL-2). ConA, used to activate the T-cell receptor (TCR), along with IL-2 co-stimulation, induces T-cell proliferation and differentiation. Thymuses, obtained from normal, female Balb/C mice, were dissociated and plated into 96-well plates at a density of 2×10^5 cells/well. ConA (0.25 mg/ml) and IL-2 (15 U/ml) were added to the wells. The cells were incubated for 4 days at 37° C. On day 4, the cells were pulsed with tritiated thymidine and incubated for an additional 4 hours. The amount of tritiated thymidine incorporated by the harvested cells was determined in a liquid scintillation counter. Doses of inventive compounds (shown in FIGS. 7A-7E) were added two hours prior to ConA and IL-2 activation. Background counts were less than 200 cpm. Results obtained, illustrate the ability of the inventive compounds to inhibit thymocyte proliferation and activation. In FIG. 7A, inventive compounds nos. […] FIG. 7B presents additional data for compound no. 1410 and 1553S in this assay. […] FIG. 7C reports assay results for inventive compounds nos. 1439, 1541, 1560 and 1565. […] FIGS. 7D and 7E illustrate assay results for inventive compounds nos. 1541, 1553, 1560 and 1565 (FIG. 7D) and 2562, […] (FIG. 7E). As is true of other inventive compounds tested, all these compounds represented in FIGS. 7D and 7E inhibit thymocyte proliferation. […] 1541, 1553, 1560, 1565, 2562, 2548R and 2548S, respectively.
# murine splenocytes = test: murine splenocyte proliferation co-stimulated by anti-mu and IL-4 (FIG. 11); type: cell-based; conditions: Mus musculus, anti-mu / IL-4 12.5 ng/ml
# Description: This example illustrates inhibitive effects of compounds nos. 1439, 1553S, 1560 and 1565 on murine splenocyte proliferation co-stimulated by anti-mu ([…]) and interleukin-4 (IL-4, 12.5 ng/ml). This in vitro assay, described above, is indicative of immune-suppressive/autoimmune treatment assay emphasizing humoral or B cell immune response. This assays are a predictive model for treatment or prevention of autoimmune diseases, such as diabetes, lupus, arthritis, and the like. The assay measures immunosuppressive activity of a drug at the B cell level. Spleens from adult mice contain immature B cells that express surface IgM. Cross-linking the surface IgM with an anti-mu antibody results in B cell proliferation. Additionally, this activation results in an increased expression of interleukin-4 receptors(IL-4R) on the surface of such cells. IL-4 acts as a growth factor for B cells and will increase the amount of proliferation induced by anti-mu.
# A mixture of anti-mu and murine IL-4 is added to murine splenocytes to cause their proliferation. Mice spleens are obtained from adult mice and a single cell suspension is prepared in RPMI 1640 medium supplemented with 10% FCS. Cells (200,000) are plated into flat-bottomed wells and pre-incubated for 1-2 hours with various concentrations of inventive compound or PBS if it is a control. A mixture of anti-mu and murine is added to the wells at a final concentration of 5 μg/ml anti-mu and 12.5 ng/ml IL-4 and plates are incubated for three days. Proliferation is determined on the third day with a pulse of tritiated thymidine. The IC50 concentration of a particular drug is the concentration of drug that results in a 50% inhibition of the proliferation obtained from the positive control.
# lymph node cells = test: ovalbumin-induced proliferation in murine lymph cells (FIG. 13); type: cell-based, Balb/C mice; conditions: Mus musculus, OVA 200 μg/ml
# Description: This example illustrates effects of the inventive compounds on ovalbumin-induced proliferation in murine lymph cells. Lymphnode cells contain a mixture of lymphoid cells: T-cells, B-cells and macrophages. Although proliferating cells in this assay are T-cells, the response obtained depends on type of antigen-presenting cell (e.g., macrophages) as well as elaboration of various immunoregulatory cytokines. Thus, this assay serves as a good model for T-cell mediated responses and as a valuable screening tool in identifying compounds useful in immunosuppressive therapeutic applications.
# Murine T-cells proliferate in vitro in response to a soluble protein antigen if first primed with a corresponding antigen in vivo. This in vivo priming usually involves emulsifying the antigen in complete Freunds adjuvant and injecting this preparation into an appropriate site on a mouse. In this assay the antigen employed was chicken ovalbumin(OVA). Following emulsification in Freund's complete adjuvant, 50 μg of OVA were injected into both hind footpads of adult Balb/C mice. Fourteen days later the draining lymph nodes(popliteal) were removed and a single cell suspension was prepared in RPMI-1640 (10%FCS) medium. Two hundred thousand lymph node cells are then plated into wells of flat-bottom 96-well plates. Inventive compouds nos. 1410, 1553 (racemic), 1553(S), 1560 and 1565 were added to appropriate wells at various concentrations. OVA, at a final concentration of 200 μg/ml, was added to appropriate wells. Positive and negative controls were established on each plate, all assay variables being set up in quadruplicate.
# The plates were incubated in a humidified, 5% CO2 incubator for 5 days. On the fifth day, 1 μCi of tritiated thymidine was added to each well and the plates were incubated for an additional 4 hours. The plates were harvested and the incorporation of 3H-TdR was determined in a liquid scintillation counter. The CPM data was then used to calculate experimental IC50 values for the compounds tested. Again, IC50 is defined as that concentration of compound resulting in 50% inhibition of 3H-TdR incorporation of the positive control.
Compound,pIC50 (thymocytes [1]),pIC50 [2],pIC50 (thymocytes [4]; FIGS. 7D and 7E),further results
"Cn1c(=O)n(CCCCCCCCCC2CO2)c(=O)c2[nH]cnc21 (stereo not shown) [Compound 1413, 1-(11,10-Oxidoundecyl)-3-methylxanthine]",5.11,5.43,,
"Cn1cnc2c1c(=O)n(CCCCC1CO1)c(=O)n2C (stereo not shown) [Compound 1541, 1-(5,6-Oxidohexyl)-3,7-dimethylxanthine]",,,4.24,"skin histology findings (inflammatory cells) ([3]; after 16 days, also a few in untreated areas): mild accumulations of mixed inflammatory cells in the dermis; hair/follicle findings six weeks following treatment ([3]; six weeks following treatment): confirmed hair loss; also recorded: slightly straighter superficial portions of follicles with less curling of hair shafts; also recorded: the subcutis contained active anagen bulbs located deeply in the subcutis; skin histology findings (acanthosis) ([3]; six weeks following treatment): slightly more acanthosis (epidermal hyperplasta) in treated areas; hair follicles and hair shafts in treated areas ([3]; topical, twice daily, 16 days, biopsy at 16 days): follicles in the treated areas had hair shafts which sometimes exit to the surface; also recorded: more normal appearing hair follicles than the untreated sections; also recorded: numerous hair shafts were seen exiting follicles in the treated sections; pIC50 (thymocytes [4]; FIG. 7C): 4.15"
Cn1cnc2c1c(=O)n(CCCCCCCCCC1CO1)c(=O)n2C (stereo not shown) [Compound 1594],5.07,4.85,,
"Cn1cnc2c1c(=O)n(CCCCCC[C@H]1CO1)c(=O)n2C [Compound 1553S, 1-(7(5)-7,8-Oxidooctyl)-3,7-dimethylxanthine]",,,,pIC50 (murine splenocytes): 4.30; pIC50 (thymocytes [4]; FIG. 7B): 4.34; pIC50 (lymph node cells): 4.37
"O=C1c2ccccc2C(=O)N1CCCCCCCC1CO1 (stereo not shown) [Compound 1105, N-(8,9-Oxidononyl) phthalimide]",5.07,,,
"Cn1cnc2c1c(=O)n(CCCCCCCCCCCCC1CO1)c(=O)n2C (stereo not shown) [Compound 3503, 1-(13,14-Oxidotetradecyl)-3,7-dimethylxanthine]",5.00,4.85,,
"C[C@H](CCCn1c(=O)c2c(ncn2C)n(C)c1=O)CCC1OC1(C)C (stereo partly drawn) [Compound 2548S, 1-(4-(S)-Methyl-7,8-oxide-8-methylnonyl)-3,7-dimethylxanthine]",5.34,5.23,4.68,
"C=CCCCCn1c(=O)c2c(ncn2C)n(C)c1=O [Compound 1539, 1-(5-Hexenyl)-3,7-dimethylxanthine]",,4.74,,
"Cn1cnc2c1c(=O)n(CCCCCCCCC1CO1)c(=O)n2C (stereo not shown) [Compound 1565, 1-(9,10-Oxidodecyl)-3,7-dimethylxanthine]",,4.77,4.52,pIC50 (murine splenocytes): 4.40; pIC50 (thymocytes [4]; FIG. 7C): 4.49; pIC50 (lymph node cells): 4.42
"C[C@@H](CCCn1c(=O)c2c(ncn2C)n(C)c1=O)CCC1OC1(C)C (stereo partly drawn) [Compound 2548R, 1-(4-(R)-Methyl-7,8-oxido-8-methylnonyl)-3,7-dimethylxanthine]",5.12,5.06,4.80,
"O=C1Cc2ccccc2C(=O)N1CCCCCCCCCC1CO1 (stereo not shown) [Compound 1114, N-(10,11-Oxidoundecyl) homophthalimide]",5.00,5.29,,
"Cn1cnc2c1c(=O)n(CCCCCCC1CO1)c(=O)n2C (racemic) [Compound 1553, 1-(7,8-Oxidooctyl)-3,7-dimethylxanthine]",,,4.54,pIC50 (lymph node cells): 4.35
"Cn1cnc2c1c(=O)n(CCCCCCCCCCCC1CO1)c(=O)n2C (stereo not shown) [Compound 2562, 1-(12,13-Oxidotridecyl)-3,7-dimethylxanthine]",5.51,,4.70,
Cn1c(=O)n(CCCCC2CO2)c(=O)c2c1ncn2COC(=O)C(C)(C)C (stereo not shown) [Compound 1410],,,,pIC50 (thymocytes [4]; FIG. 7A): 4.17; pIC50 (thymocytes [4]; FIG. 7B): 4.21; pIC50 (lymph node cells): 4.26
"Cn1c(=O)n(CCCCC2CO2)c(=O)c2[nH]cnc21 (stereo not shown) [Compound 1439, 1-(5,6-Oxidohexyl)-3-methylxanthine]",5.10,,,pIC50 (murine splenocytes): 4.51; pIC50 (thymocytes [4]; FIG. 7C): > 4.60
